System: aorta of HHcy and HHcy/HG Cbs−/+ mice
Assay: Endothelium-dependent vascular relaxation to ACh in thoracic aorta after in vivo calpain inhibitor administration
Set-up: species or system mouse
Settings: 2 mg/kg BW i.p. daily for 2 weeks, p<0.05
Method: Images (Left Panel) and quantification (Right Panel) showing HHcy and HG activates calpain in mouse aortic endothelial cells (MAECs, P0) isolated from CBS^−/+ mice (FIG. 3A). Calpain activity was measured in intact MAECs by the fluorescent substrate t-BOC-Leu-Met-CMAC (T-BOC, 10 μmol/L, 30 min). In FIG. 3B, calpain inhibitors rescued endothelium-dependent vascular relaxation to ACh in the aorta of HHcy CBS^−/+ and HHcy/HG CBS^−/+ mice in the presence of calpain inhibitors in vivo (Left Panel) and ex vivo (Right Panel). Left Panel: Calpain inhibitor MDL28170 (MDL, Sigma #M6690) was administrated in vivo by i.p. injection (2 mg/kg/day, 2 weeks). Right Panel: The arterial rings were incubated with calpain inhibitors: MDL, calpeptin and N-Acetyl-Leu-Leu-Met-CHO (ALLM, 20 μmol/L for all, Enzo life Sciences, PI-100-0005) for 1 hr. […]
Endothelial function was assessed in the mouse thoracic aorta using a multiple-wire myograph (DMT 610) (Cheng et al., 2011, Blood 118:1998-2006; Cheng et al., 2007, Can J Physiol Pharmacol 85:404-412; Cheng et al., 2001, Hypertension 37:433-439). […]

MDL28170
endothelial function (endothelium-dependent vascular relaxation to ACh): largely improved

Source: patent US20160089391A1, “Molecular Targets for Cardiovascular Disease” (Temple University-of the Commonwealth System of Higher …, priority 2014, published 2016)
